For assay [1], the system named is BaF3. The experiment in a line: Antiproliferative activity against mouse BaF3 cells harboring EGFR del19/T790M/C797S triple mutant assessed as inhibition of cell growth incubated for 72 hrs by CCK-8 assay. The format is functional, cell-based. The conditions noted are these: BaF3, 72 h. For orientation: Tetrazolium dyes change colour on reduction, which living cells bring about.

Assay [2] deals with BaF3. Description: Antiproliferative activity against mouse BaF3 cells harboring EGFR del19/T790M double mutant assessed as inhibition of cell growth incubated for 72 hrs by CCK-8 assay. It counts as functional, cell-based. The following applies: BaF3, 72 h.
Assay [3] deals with Epidermal growth factor receptor (Homo sapiens, UniProt P00533, 746-750DEL/C797S/T790M). The experiment in a line: Inhibition of EGFR d746-750/T790M/C797S triple mutant (unknown origin).
Assay [4] concerns the target Epidermal growth factor receptor (Homo sapiens, UniProt P00533, 746-750DEL/T790M). Description: Inhibition of EGFR d746-750/T790M double mutant (unknown origin).
For assay [5], the target named is Epidermal growth factor receptor (Homo sapiens, UniProt P00533, L858R/T790M). Description: Inhibition of EGFR L858R/T790M double mutant (unknown origin).

A value given as a limit tells only on which side of the number the result lay.

Epidermal growth factor receptor (Homo sapiens, UniProt P00533, L858R/T790M), sequence (P00533 25-1210 T790M/L858R limits assumed): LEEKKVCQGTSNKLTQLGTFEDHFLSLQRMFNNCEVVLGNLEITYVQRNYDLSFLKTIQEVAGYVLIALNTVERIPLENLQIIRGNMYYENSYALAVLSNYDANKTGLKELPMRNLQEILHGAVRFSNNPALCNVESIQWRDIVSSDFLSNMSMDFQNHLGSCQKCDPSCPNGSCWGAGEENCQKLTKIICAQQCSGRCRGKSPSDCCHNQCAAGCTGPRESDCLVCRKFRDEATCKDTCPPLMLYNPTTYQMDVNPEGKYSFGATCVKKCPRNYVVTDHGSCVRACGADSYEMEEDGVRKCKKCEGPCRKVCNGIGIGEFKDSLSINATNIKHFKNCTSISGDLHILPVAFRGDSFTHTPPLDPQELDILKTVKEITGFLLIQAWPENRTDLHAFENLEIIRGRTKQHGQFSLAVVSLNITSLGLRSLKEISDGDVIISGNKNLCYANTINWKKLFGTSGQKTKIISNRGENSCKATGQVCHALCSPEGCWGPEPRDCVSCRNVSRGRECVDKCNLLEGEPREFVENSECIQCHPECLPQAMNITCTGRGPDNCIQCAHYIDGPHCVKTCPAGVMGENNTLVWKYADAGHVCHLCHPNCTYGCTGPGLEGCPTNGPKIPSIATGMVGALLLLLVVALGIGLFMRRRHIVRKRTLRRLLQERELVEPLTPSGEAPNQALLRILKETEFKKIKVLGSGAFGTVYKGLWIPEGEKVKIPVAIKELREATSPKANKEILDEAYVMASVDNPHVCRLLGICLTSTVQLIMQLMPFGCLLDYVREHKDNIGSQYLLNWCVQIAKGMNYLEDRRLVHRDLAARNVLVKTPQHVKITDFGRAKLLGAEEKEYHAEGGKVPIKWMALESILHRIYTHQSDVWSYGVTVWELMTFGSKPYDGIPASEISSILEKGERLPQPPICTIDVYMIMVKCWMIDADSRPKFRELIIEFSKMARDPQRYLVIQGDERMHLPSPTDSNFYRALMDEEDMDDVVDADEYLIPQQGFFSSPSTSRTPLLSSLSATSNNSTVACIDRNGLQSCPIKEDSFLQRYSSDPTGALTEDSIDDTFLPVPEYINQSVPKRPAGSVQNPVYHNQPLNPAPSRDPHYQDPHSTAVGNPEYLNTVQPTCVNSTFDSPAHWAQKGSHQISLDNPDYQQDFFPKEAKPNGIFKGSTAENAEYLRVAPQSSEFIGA
Epidermal growth factor receptor (Homo sapiens, UniProt P00533, 746-750DEL/T790M), sequence (P00533 whole entry, looked up, stated change not applied): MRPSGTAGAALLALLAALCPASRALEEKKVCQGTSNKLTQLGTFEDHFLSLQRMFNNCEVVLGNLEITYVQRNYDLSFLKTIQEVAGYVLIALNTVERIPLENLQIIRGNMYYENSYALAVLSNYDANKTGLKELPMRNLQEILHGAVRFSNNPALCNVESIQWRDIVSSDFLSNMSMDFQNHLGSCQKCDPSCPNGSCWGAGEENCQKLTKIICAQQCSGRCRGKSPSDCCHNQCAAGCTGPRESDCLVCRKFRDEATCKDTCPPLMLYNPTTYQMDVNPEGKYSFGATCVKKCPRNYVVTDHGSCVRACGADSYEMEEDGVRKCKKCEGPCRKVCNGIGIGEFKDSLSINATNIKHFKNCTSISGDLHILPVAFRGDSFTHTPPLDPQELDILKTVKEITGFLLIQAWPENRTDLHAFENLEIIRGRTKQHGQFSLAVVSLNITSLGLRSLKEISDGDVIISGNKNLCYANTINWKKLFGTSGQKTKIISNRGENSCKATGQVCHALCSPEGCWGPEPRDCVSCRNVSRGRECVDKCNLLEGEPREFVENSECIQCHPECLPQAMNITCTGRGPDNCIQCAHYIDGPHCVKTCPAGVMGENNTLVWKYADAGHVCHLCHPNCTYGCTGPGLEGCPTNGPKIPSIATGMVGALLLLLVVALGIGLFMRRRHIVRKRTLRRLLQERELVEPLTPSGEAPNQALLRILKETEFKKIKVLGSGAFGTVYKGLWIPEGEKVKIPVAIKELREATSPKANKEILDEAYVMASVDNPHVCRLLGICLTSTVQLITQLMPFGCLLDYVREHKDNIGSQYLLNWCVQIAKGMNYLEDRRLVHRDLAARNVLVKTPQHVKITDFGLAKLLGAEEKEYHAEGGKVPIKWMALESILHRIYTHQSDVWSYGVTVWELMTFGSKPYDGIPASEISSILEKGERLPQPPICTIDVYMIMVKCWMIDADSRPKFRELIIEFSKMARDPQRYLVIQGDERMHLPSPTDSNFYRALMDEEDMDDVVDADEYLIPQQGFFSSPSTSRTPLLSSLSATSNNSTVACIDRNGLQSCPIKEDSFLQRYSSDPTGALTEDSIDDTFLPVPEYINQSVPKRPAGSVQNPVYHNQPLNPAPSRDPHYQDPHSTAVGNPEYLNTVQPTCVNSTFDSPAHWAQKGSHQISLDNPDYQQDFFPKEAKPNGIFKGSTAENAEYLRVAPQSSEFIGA
Epidermal growth factor receptor (Homo sapiens, UniProt P00533, 746-750DEL/C797S/T790M), sequence (P00533 whole entry, looked up, stated change not applied): as above

As for `C=CC(=O)N1CCCCCCCn2cc(c3ccccc32)-c2ccnc(n2)Nc2cc1ccc2F`, the IC50 in assay [1] worked out at 0.712 µM; in assay [2] it was 0.213 µM.
With `C=CC(=O)N1CCCCCCn2cc(c3ccccc32)-c2ccnc(n2)Nc2cc1c(OCCCF)cc2F`, the IC50 in assay [1] was 0.835 µM; in assay [2] it was 0.063 µM; in assay [3], above 0.1 µM; in assay [4], 0.0006 µM; in assay [5] it was 0.0132 µM.
On the same counts, the results for `C=CC(=O)N1CCCCCCn2cc(c3ccccc32)-c2ccnc(n2)Nc2cc1ccc2F` are 0.695 µM, 0.035 µM, above 0.1 µM, 0.00022 µM and 0.00649 µM.
The matching figures for `C=CC(=O)N1CCCCCCCn2cc(c3ccccc32)-c2ccnc(n2)Nc2cccc1c2`: 0.811 µM, 0.218 µM, 0.0553 µM, 0.00055 µM and 0.00345 µM.
For `C=CC(=O)N1CCCCCCCn2cc(c3ccccc32)-c2ccnc(n2)Nc2cc1c(OCCCF)cc2F`, the IC50 in assay [3] is above 0.1 µM; in assay [4] it was 0.00296 µM; in assay [5], 0.0257 µM.
The matching figures for `C=CC(=O)N1CCCCCCCCn2cc(c3ccccc32)-c2ccnc(n2)Nc2cccc1c2`: 0.0865 µM, 0.00703 µM and 0.0201 µM.
Turning to `C=CC(=O)N1CCCCCCn2cc(c3ccccc32)-c2ccnc(n2)Nc2cccc1c2`, the IC50 came to 0.839 µM in assay [1] and 0.215 µM in assay [2].
In the case of `C=CC(=O)N1CCCCCCCn2cc(c3ccccc32)-c2ccnc(n2)Nc2cc1ccc2OC`, the IC50 in assay [1] is 0.867 µM; in assay [2] it was 0.148 µM; in assay [3], above 0.1 µM; in assay [4], 0.00065 µM; in assay [5] it was 0.01 µM.
For `C=CC(=O)N1CCCCCCCCCn2cc(c3ccccc32)-c2ccnc(n2)Nc2cccc1c2`, the IC50 is above 0.1 µM in assay [3], 0.0132 µM in assay [4] and 0.0252 µM in assay [5].
On to `C=CC(=O)N1CCCCCCn2cc(c3ccccc32)-c2ccnc(n2)Nc2cc1ccc2OC`, for which the IC50 is 0.893 µM in assay [1]; 0.051 µM in assay [2]; above 0.1 µM in assay [3]; 0.00047 µM in assay [4]; 0.00831 µM in assay [5].
`C=CC(=O)Nc1cc(Nc2nccc(-c3cn(C)c4ccccc34)n2)c(OC)cc1N(C)CCN(C)C` [OSIMERTINIB]: the IC50 in assay [1] was determined as 0.859 µM; in assay [2], 0.033 µM.

Broadly, the IC50 is the midpoint of a concentration-inhibition curve.
